Test results taken from PMC5578999, “Novel quinolone chalcones targeting colchicine-binding pocket kill multidrug-resistant cancer cells by inhibiting tubulin activity and MRP1 function” (Scientific Reports, 2017).
Several values for one entry are separate records, joined by “and”; a condition that tells them apart may be missing. Equal values may be shown once.

Columns and labels:
KB-C-1 = assay: SRB cell viability, parental cells; format: cell-based; details: Homo sapiens, KBC-1; parental KB-C-1
Description: human epidermoid carcinoma cell line and KB-C2, an isogenic MDR1- overexpressing drug-resistant cell line, were kindl y provided b y Dr. Amit K Tiwari, the Universit y of Toledo, OH. […]
Cell line authentication was carried out by Genetica DNA
Cell viability, com binational i ndex and cell synchronization
Cell viability and proliferation were ex amined using a s ulforhodamine B (SRB) assa y as […]
IC 50 values were calculat ed from si gmoidal dose-response cu rves gen erat ed b y at least two indepen dent ex periments , with each quadruplicate samples, using GraphPad Prism v.5.04 software (GraphPad Software, Inc, La J olla, CA). […]
(sham) or presence of compound(s). […]

[1] = target: tubulin, colchicine-binding pocket; assay: Competitive colchicine-tubulin binding assay (modified Dixon plot); details: competitive with colchicine
Description: To determine the mode of binding, a competitive binding assay was carried out as described previously. Briefly, tubulin (0.4 μmol/L) was incubated with different concentrations of CTR for 1 hour at 37 °C. Subsequently, colchicine was added to the reaction mixture containing CTR-tubulin complexes. […] Fluorescence was monitored using an automated plate reader (Synergy H4 Hybrid Multi-Mode Micro plate Reader) with an excitation wavelength at 360 nm and emission at 430 nm. […] The experiment was repeated four times.

[2] = tested on: MDA-MB-231 triple-negative metastatic breast cancer cells; assay: Antitumor activity in engrafted athymic mice; format: in vivo, ATH490 athymic mice; details: for tumor volume Day 0 / tumor volume Day 6: Tax 10 mg/kg i.v. once/week, CTR 30 mg/kg i.p. every 3-4 days, combinations Tax 5 + CTR 15 mg/kg once/week; for tumor volume Day 6: sham 105.03; for tumor volume Day 14 / tumor volume Day 17 / tumor volume Day 20 / tumor volume Day 24 / tumor volume Day 27 / tumor volume Day 30: same doses; for tumor volume Day 14: sham 136.66; for tumor volume Day 17: sham 162.62; for tumor volume Day 20: sham 192.69; for tumor volume Day 24: sham 268.08; for tumor volume Day 27: sham 426.87; for tumor volume Day 30: sham 557.66
Description: The animals were then immediately euthanized by carbon dioxide. […]
Supplementary Table S2. A typical treatment protocol of engrafted mice with CTR alone or in
combination with paclitaxel.
Treatment Dos a ge Frequ enc y Route Notes
Sham control Highest volume E v e r y 3-4 d a ys Intraperitoneal (I.P.) Vehicle onl y
Taxa 10 mg/kgb Once/week Intravenous ( I.V.)
CTR-17 (30) 30 mg/kg E v e r y 3-4 d a ys I. P .
CTR-20 (30) 30 mg/kg E v e r y 3-4 d a ys I. P .
Supplementary Table S 3: Antitumor activity of CTR -17 and CTR -20, alone or in combination
a Tax: paclitaxel. b mg per kg of bod y wei ght. c unit is mm 3. […]

centrosomes = assay: Distance between two centrosomes by fluorescence microscopy; format: cell-based; details: 3.0 μmol/L CTR-17
Description: and Lee, 2008). The reversibility of drug effects was carried out as follow: He La cells treated
with CTR-17 or CTR-20 for 12 hours were w ashed twice with 1 × PBS and then releas ed into
pre-w armed complet emedium . Subsequentl y, c ell s were h arvested at scheduled time points to
ex amine their DNA profi les /cell c ycle positions by flow c ytometr y.
Immunofluorescencestai ning was car ried out as d escribed previousl y (Santi and Lee,
2011).Photograph y was carri ed out with a Carl Zeiss 510 Meta l aser s cann ing microscop e or an
Axioscope,and images were captur ed with LSM image examiner (Carl Zeiss, North York, ON,
Canada). For immunostaining , a background cont rol (without secondar y antibody) and bleed-
through controls (cells labeled with each fluorophore separatel y) were used to avoid inaccur ate
interpretation of dat a due to artifacts. A minimum of 10 fields per coverslip and 200 cells for
quantitative cell anal ysis were captur ed. Each ex periment was r epeat ed at l east twice. Western
blotting was carried out as described previousl y (Santi and Lee, 2010).
Molecular Operating Environment (MOE) (Chemi cal Computing Group Inc, Montreal, […]
The best docking pose was determined based on t he minimum free energy for binding. […]
hours or 24hours . The m itotic index was determined b y fluorescence micro scop y with counting […]

| Structure (SMILES) | IC50 (KB-C-1) [nM] | binding to the colchicine-binding pocket by Ki values, relative to CTR-17 [1] | tumor volume Day 0 [2] [mm3] | tumor volume Day 6 [2] [mm3] | tumor volume Day 14 [2] [mm3] | tumor volume Day 17 [2] [mm3] | tumor volume Day 20 [2] [mm3] | tumor volume Day 24 [2] [mm3] | tumor volume Day 27 [2] [mm3] | tumor volume Day 30 [2] [mm3] | distance between two centrosomes (centrosomes) [µm] | distance between two centrosomes shorter than sham control (centrosomes) |
| --- | --- | --- | --- | --- | --- | --- | --- | --- | --- | --- | --- | --- |
| COc1ccc2[nH]c(=O)c(/C=C/C(=O)c3ccccc3OC)cc2c1 [CTR-20, (E)-6-Methoxy-3-(3-(2-methoxyphenyl)-3-oxoprop-1-enyl) quinolin-2(1H)-one] | 100 ± 10 | approximately five times more strongly | 92.51 | 69.89 | 84.64 | 97.11 | 97.22 | 106.26 | 124.88 | 140.63 |  |  |
| COc1ccccc1C(=O)/C=C/c1cc2ccccc2[nH]c1=O [CTR-17, (E)-3-(3-(2-Methoxyphenyl)-3-oxoprop-1-enyl)quinolin-2(1H)-one] | 380 ± 70 |  | 86.71 | 63.99 | 90.07 | 128.36 | 134.76 | 160.86 | 189.45 | 209.84 | 4.83 ± 0.36 | ~ 35% and 35% |
